In assay [1] the test system is rat. As to the kind of experiment: Diuretic, natriuretic and kaliuretic action, Experimental Design 2 (anesthetized rats, stepwise halved NaCl infusion, i.v. bolus). Type of assay: in vivo. Particulars: dose 1 mg/kg rat i.v. bolus, collection period 120 min; for Urine: control 0.520; for K^+: control 25.8; for Na^+: control 31.5. As to the method:
B. Diuretic, natruiuretic and kaliuretic action of the peptides according to the invention in Experimental Design 2 (dose: 1 mg/kg rat, colection period: 120 min.)
Experimental Design 2: The rats were anesthetized with 0.1 ml of 10% strength thiobutabarbital sodium/100 g of body weight i.p. They received an NaCl infusion from 60 min before administration of the substance up to administration of the substance (2.5 ml of a 0.85% strength NaCl solution .h^-1.0.1 kg^-1 body weight). After ad
ministration of the substance, the infusion rate was halved for one hour (1.25 ml.h^-1.0.1 kg^-1) Thereafter the infusion rate was again halved up to the end of the experiment (0.625 ml.h^1.0.1 kg^-1). The test substance was administered as i.v. bolus in 0.1 ml of a 0.85% strength NaCl solution/100 g of body weight.

Assay [2] relates to rat. In words: Diuretic, natriuretic and kaliuretic action, Experimental Design 1 (anesthetized rats, continuous NaCl infusion, i.v. bolus). It counts as in vivo. The following applies: for Urine / K^+ / Na^+: collection period 90 min; for Urine: control 1.267; for K^+: control 29.5; for Na^+: control 65.2. As to the method: A. […]
Experimental Design 1: The rats were anesthetized with 0.1 ml of 10% strength thiobutabarbital sodium/100 g of body weight i.p. They received an NaCl infusion from 60 min before administration of the substance and continuing during the experiment (2.5 ml of a 0.9% strength NaCl solution .h^-1.0.1 kg^-1 body weight). The test substance was administered as an i.v. bolus in 0.5 ml of a 0.9% strength solution/100 g of body weight.

Where a SMILES comes first, the peptide text is derived from it. [ ]: non-standard residue; d: D form. The star is where a group is joined. d(aIle) = CC[C@H](C)[C@@H](N)C(=O)O; code Z = not defined here; Cbz = O=C(OCc1ccccc1)*; OBn = c1ccc(CO*)cc1; OtBu = CC(C)(C)O*; tBu = CC(C)(C)*

Turning to “Z-Arg-I-le-Glu(OtBu)-Arg-Ile-NH2 [Z-Arg-Ile-Glu(OtBu)-Arg-Ile-NH2]”, in assay [1], the Urine was determined as 0.47 mL/kg, the “K^+” value was determined as 36.1 µmol/kg and the “Na^+” value worked out at 91.5 µmol/kg.

Regarding `CC[C@H](C)[C@H](NC(=O)[C@H](CCCNC(=N)N)NC(=O)[C@H](Cc1c[nH]c2ccccc12)NC(=O)[C@@H](NC(=O)[C@H](CCCNC(=N)N)NC(=O)OCc1ccccc1)[C@@H](C)CC)C(=O)O` [Z-Arg-Ile-Trp-Arg-Ile-OH] (Cbz-RIWRI-OH), in assay [2] (dose 1 mg/kg rat i.v. bolus), the Urine amounted to 1.64 mL/kg, the “K^+” value was 37.1 µmol/kg and the “Na^+” value came to 208.6 µmol/kg.

Cbz-[dR]I[dL]RI-OBn: in assay [1], the Urine was 0.19 mL/kg, the “K^+” value came out at 20.4 µmol/kg and the “Na^+” value is 37.3 µmol/kg.

As for `CC[C@H](C)[C@H](NC(=O)[C@H](CCCNC(=N)N)NC(=O)[C@H](COC(C)(C)C)NC(=O)[C@@H](NC(=O)[C@@H](N)CCCNC(=N)N)[C@@H](C)CC)C(=O)O` [H-Arg-Ile-Ser(tBu)-Arg-Ile-OH] (H-RIS(tBu)RI-OH), in assay [2] (dose 1 mg/kg rat i.v. bolus), the Urine turned out to be 1.19 mL/kg, the “K^+” value was 28.4 µmol/kg and the “Na^+” value came to 74.5 µmol/kg.

For the compound “H-RLQRL-OH [H-Arg-Leu-Gln-Arg-Leu-OH, H-Arg-Leu-Gln-Arg-Leu--OH]”, in assay [1], the Urine is 0.25 mL/kg, the “K^+” value was 23.7 µmol/kg and the “Na^+” value came out at 30.2 µmol/kg.

For the compound Cbz-[dR]IL[dR]I-OBn, in assay [1], the Urine came to 0.29 mL/kg, the “K^+” value was 30.1 µmol/kg and the “Na^+” value came to 48.4 µmol/kg.

Regarding `CC(C)C[C@H](NC(=O)[C@H](NC(=O)[C@H](CCCNC(=N)N)NC(=O)OCc1ccccc1)C(C)C)C(=O)N[C@@H](CCCNC(=N)N)C(=O)N[C@@H](C(=O)OCc1ccccc1)C(C)C` [Z-Arg-D-Val-Leu-Arg-D-Val-OBzl] (Cbz-R[dV]LR[dV]-OBn), in assay [1], the Urine stood at 0.27 mL/kg, the “K^+” value stood at 38.3 µmol/kg and the “Na^+” value is 55.1 µmol/kg.

As for `CC[C@H](C)[C@H](NC(=O)[C@H](CCCNC(=N)N)NC(=O)[C@H](CC(C)C)NC(=O)[C@H](NC(=O)[C@@H](N)CCCNC(=N)N)C(C)C)C(=O)O` [H-Arg-D-Val-Leu-Arg-Ile-OH] (H-R[dV]LRI-OH), in assay [1], the Urine was 0.57 mL/kg, the “K^+” value is 34.9 µmol/kg and the “Na^+” value was 83.77 µmol/kg.

Take Z-Arg-Ile-Asp(OtBu)-Arg-Ile-ol: in assay [2] (dose 1 μg/kg i.v. bolus), the Urine came to 0.79 mL/kg, the “K^+” value turned out to be 27.8 µmol/kg and the “Na^+” value is 118.4 µmol/kg. Moreover, in assay [2] (judged from the data against control), the “Type of action on diuresis, natriuresis and kaliuresis (in words)” value is “antidiuretics with a natriuretic action”.

Turning to H-KFLKF-OH [H-Lys-Phe-Leu-Lys-Phe-OH], in assay [1], the Urine was 0.52 mL/kg, the “K^+” value was found to be 31.0 µmol/kg and the “Na^+” value was 80.2 µmol/kg.

As for `CC[C@H](C)[C@H](NC(=O)[C@H](CCCNC(=N)N)NC(=O)OCc1ccccc1)C(=O)N[C@@H](CC(C)C)C(=O)N[C@@H](CCCNC(=N)N)C(=O)N[C@@H](C(=O)OCc1ccccc1)C(C)C` [Z-Arg-Ile-Leu-Arg-D-Val-OBzl] (Cbz-RILR[dV]-OBn), in assay [1], the Urine was determined as 0.43 mL/kg, the “K^+” value is 36.7 µmol/kg and the “Na^+” value came out at 88.6 µmol/kg.

Consider H-RILRI-OH [H-Arg-Ile-Leu-Arg-Ile-OH], for which, in assay [2] (dose 1 mg/kg rat i.v. bolus), the Urine came to 2.03 mL/kg, the “K^+” value came to 50.1 µmol/kg and the “Na^+” value came to 149.8 µmol/kg.

As to `CC[C@H](C)[C@H](NC(=O)[C@H](CCCNC(=N)N)NC(=O)OCc1ccccc1)C(=O)N[C@@H](CC(C)C)C(=O)N[C@H](CCCNC(=N)N)C(=O)N[C@H](C(=O)OCc1ccccc1)[C@@H](C)CC` [Z-Arg-Ile-Leu-D-Arg-Ile-OBzl] (Cbz-RIL[dR]I-OBn), in assay [1], the Urine was 0.52 mL/kg, the “K^+” value was 36.2 µmol/kg and the “Na^+” value came out at 66.9 µmol/kg.

As to H-RIWRI-OH [H-Arg-Ile-Trp-Arg-Ile-OH], in assay [2] (dose 1 mg/kg rat i.v. bolus), the Urine worked out at 0.67 mL/kg, the “K^+” value stood at 57.5 µmol/kg and the “Na^+” value stood at 112.8 µmol/kg.

Turning to `CC[C@H](C)[C@H](NC(=O)[C@@H](N)CCCNC(=N)N)C(=O)N[C@H](CC(C)C)C(=O)N[C@@H](CCCNC(=N)N)C(=O)N[C@@H](C(=O)O)C(C)C` [H-Arg-Ile-D-Leu-Arg-D-Val-OH] (H-RI[dL]R[dV]-OH), in assay [1], the Urine turned out to be 0.31 mL/kg, the “K^+” value was found to be 32.8 µmol/kg and the “Na^+” value was 68.4 µmol/kg.

With `CC[C@H](C)[C@H](NC(=O)[C@H](CCCNC(=N)N)NC(=O)[C@@H](CC(C)C)NC(=O)[C@H](NC(=O)[C@H](N)CCCNC(=N)N)[C@@H](C)CC)C(=O)O` [H-D-Arg-D-allo-Ile-D-Leu-Arg-Ile-OH] (H-[dR][d(aIle)][dL]RI-OH), in assay [1], the Urine stood at 0.87 mL/kg, the “K^+” value was 35.5 µmol/kg and the “Na^+” value was 95.1 µmol/kg.

`CC[C@H](C)[C@H](NC(=O)[C@H](CCCNC(=N)N)NC(=O)OCc1ccccc1)C(=O)N[C@@H](COC(C)(C)C)C(=O)N[C@@H](CCCNC(=N)N)C(=O)N1CCC[C@H]1C(=O)OC(C)(C)C` [Z-Arg-Ile-Ser(tBu)-Arg-Pro-OtBu] (Cbz-RIS(tBu)RP-OtBu): in assay [1], the Urine turned out to be 0.44 mL/kg, the “K^+” value was determined as 37.8 µmol/kg and the “Na^+” value was determined as 88.9 µmol/kg.

On to `CC[C@H](C)[C@H](NC(=O)[C@@H](CCCNC(=N)N)NC(=O)[C@H](CC(C)C)NC(=O)[C@@H](NC(=O)[C@H](N)CCCNC(=N)N)[C@@H](C)CC)C(=O)O` [H-D-Arg-Ile-Leu-D-Arg-Ile-OH] (H-[dR]IL[dR]I-OH), for which, in assay [1], the Urine amounted to 0.28 mL/kg, the “K^+” value was 33.9 µmol/kg and the “Na^+” value was 61.4 µmol/kg.

`CC[C@H](C)[C@H](NC(=O)[C@@H](CCCNC(=N)N)NC(=O)[C@H](CC(C)C)NC(=O)[C@@H](NC(=O)[C@@H](N)CCCNC(=N)N)[C@@H](C)CC)C(=O)O` [H-Arg-Ile-Leu-D-Arg-Ile-OH] (H-RIL[dR]I-OH): in assay [1], the Urine was 0.78 mL/kg, the “K^+” value came to 40.8 µmol/kg and the “Na^+” value turned out to be 93.7 µmol/kg.

`CC[C@H](C)[C@H](NC(=O)[C@@H](N)CCCNC(=N)N)C(=O)N[C@@H](CC(C)C)C(=O)N[C@@H](CCCNC(=N)N)C(=O)N[C@@H](C(=O)O)C(C)C` [H-Arg-Ile-Leu-Arg-D-Val-OH] (H-RILR[dV]-OH): in assay [1], the Urine was determined as 0.56 mL/kg, the “K^+” value was determined as 38.9 µmol/kg and the “Na^+” value is 68.8 µmol/kg.

Consider `CC[C@H](C)[C@H](NC(=O)[C@@H](N)CCCNC(=N)N)C(=O)N[C@@H](COC(C)(C)C)C(=O)N[C@@H](CCCNC(=N)N)C(=O)N1CCC[C@H]1C(=O)OC(C)(C)C` [H-Arg-Ile-Ser(tBu)-Arg-Pro-OtBu] (H-RIS(tBu)RP-OtBu), for which, in assay [1], the Urine was found to be 0.63 mL/kg, the “K^+” value was 31.5 µmol/kg and the “Na^+” value amounted to 136.8 µmol/kg.

With `CC[C@H](C)[C@H](NC(=O)[C@H](CCCNC(=N)N)NC(=O)[C@H](CC(C)C)NC(=O)[C@@H](NC(=O)[C@H](N)CCCNC(=N)N)[C@@H](C)CC)C(=O)O` [H-D-Arg-Ile-Leu-Arg-Ile-OH] (H-[dR]ILRI-OH), in assay [1], the Urine amounted to 0.22 mL/kg, the “K^+” value worked out at 33.6 µmol/kg and the “Na^+” value stood at 55.3 µmol/kg.

As to H-KFLKF-NH2 [H-Lys-Phe-Leu-Lys-Phe-NH2], in assay [1], the Urine came out at 0.25 mL/kg, the “K^+” value was found to be 16.7 µmol/kg and the “Na^+” value is 36.8 µmol/kg.

For the compound `CC[C@H](C)[C@H](NC(=O)[C@H](CCCNC(=N)N)NC(=O)[C@@H](CC(C)C)NC(=O)[C@@H](NC(=O)[C@H](N)CCCNC(=N)N)[C@@H](C)CC)C(=O)O` [H-D-Arg-Ile-D-Leu-Arg-Ile-OH] (H-[dR]I[dL]RI-OH), in assay [1], the Urine amounted to 1.13 mL/kg, the “K^+” value worked out at 49.7 µmol/kg and the “Na^+” value is 115.9 µmol/kg.

For the compound “Z-D-Arg-Ile-Leu-Arg-Ile-OBzl ({code Z}-[dR]ILRI-OBn; reading uncertain; also: printed as Z-D-Arg-Ile-Leu-Arg-Ile-OBzl)”, in assay [1], the Urine came to 0.59 mL/kg, the “K^+” value was determined as 38.1 µmol/kg and the “Na^+” value came to 86.3 µmol/kg.

As for `CC[C@H](C)[C@H](NC(=O)[C@H](CCCNC(=N)N)NC(=O)OCc1ccccc1)C(=O)N[C@H](CC(C)C)C(=O)N[C@@H](CCCNC(=N)N)C(=O)N[C@@H](C(=O)OCc1ccccc1)C(C)C` [Z-Arg-Ile-D-Leu-Arg-D-Val-OBzl] (Cbz-RI[dL]R[dV]-OBn), in assay [1], the Urine is 0.48 mL/kg, the “K^+” value stood at 43.8 µmol/kg and the “Na^+” value was found to be 79.0 µmol/kg.

Values taken from patent US5011825A, “Peptides influencing diuresis and natriuresis, a process for their preparation, agents containing them, and their use” (Hoechst Aktiengesellschaft, priority 1986, dated 1991).
